How the values were obtained:
[1] = system: RPE and PRP dual cell aggregates; assay: Dual cell aggregate formation in thaw medium with or without Y-27632 (phase contrast); assay type: cell-based, human; conditions: Y-27632 in thaw medium (RPE-MM), 1 RPE:8 PRP, compared with thaw without Y-27632
Description: (§1) To characterize a dual cell aggregate culture, RPE were thawed in RPE-MM and PRP were thawed in RMN. If PRP were thawed as aggregates, either all aggregates or a sample of aggregates were TrypLE dissociated. Both cell types were counted using a ViCELL XR. RPE and PRP were combined at a desired cell ratio and cell number in RPE-MM and placed in a ULA T-75 flask on a belly dancer at 16-18 RPM to permit aggregate formation. Alternately, aggregates could be formed in a PBS mini vessel. To test in vivo function, some aggregates were transplanted into the subretinal space of a rat retina two days after aggregate formation. Surgery was performed to analyze the retinas. Aggregates or rat retinas were cryosectioned and analyzed by immunocytochemistry.
Dual cell aggregate formation without Y-27632 in thaw medium: As a first attempt to co-culture RPE and PRP as aggregates, RPE and PRP were thawed as single cells at a ratio of 1 RPE:3 PRP. Phase contrast images were captured at various time points (FIG. 1). […] However, after 21 and 69 days, aggregates had formed and appeared to be fairly regular, though skewed to a high RPE ratio, relative to PRP. Based on this experiment, all future experiments used the ROCK inhibitor Y-27632 when thawing RPE and maintained a lower RPE:PRP ratio. […]

[2] = system: RPE and PRP dual cell aggregates; assay: Effect of PGE-2 on long-term dual cell aggregate culture (immunocytochemistry); assay type: cell-based, human; conditions: with vs without PGE2
Description: as §1
Effect of PGE-2 on long-term dual cell aggregate culture: During RPE culture, Prostaglandin E2 (PGE-2) is added to the culture medium from day 54 to day 68 of differentiation. PGE-2 is a hormone that stimulates RPE primary cilia formation and polarization, and its effect was tested on the dual cell aggregates (FIGS. 3-5). With this formulation of RPE and PRP, RPE generally appeared to form a majority of the aggregate, even after one month of culture. PRP did appear to mature after two months, indicated by the presence of PRPH2, an outer segment marker.

SMILES	aggregate formation efficiency [1]	PRP organization in dual cell aggregates ([2]; one month after aggregate formation, initial ratio 1 RPE:8 PRP)	RPE organization or rod formation in dual cell aggregates ([2]; one month of culture)
C[C@@H](N)[C@H]1CC[C@H](C(=O)Nc2ccncc2)CC1 [Condition Y-27632]	qualitatively more efficient	–	–
CCCCC[C@H](O)/C=C/[C@H]1[C@H](O)CC(=O)[C@@H]1C/C=C\CCCC(=O)O [PGE2, Prostaglandin E2]	–	Differences in PRP organization were apparent	did not show striking differences
